Assay results published in US20100209513A1, “PHARMACEUTICAL COMPOSITION CONTAINING MICRONIZED PARTICLES OF NAPHTHOQUINONE-BASED COMPOUND” (priority 2007, published 2010).

What was measured:
Assay type in all cases: in vivo
[1] = Body weight change in ob/ob mice, effect of chitosan on micronized cryptotanshinone (Example 10); conditions: ob/ob male mice; cryptotanshinone 400 mg/kg in admixture with the feed for 20 days
Procedure: In order to ascertain whether chitosan maintains a particle size of micronized particles of cryptotanshinone, prevents the particle agglomeration or aggregation, and enhances therapeutic efficacy of cryptotanshinone, an animal experiment was carried out as follows.
(§1) 10-week-old ob/ob male mice (Jackson Lab) as an obese mouse model of type 2 diabetes were purchased from Orient Co., Ltd., Korea and were allowed to acclimate to a new environment of the breeding room for 10 days prior to experiments. Animals were fed a solid feed (P5053, Labdiet) as a laboratory animal chow. The ob/ob male mice were housed and allowed to acclimate to a new environment for 10 days, in a breeding mom maintained at a temperature of 22±2° C., humidity of 55±5%, and a 12-h light/dark (L/D) cycle (light from 8:00 am. to 8:00 p.m.). According to a randomized blocks design, the thus-acclimated animals were randomly divided into four groups, each consisting of 7 animals: a control group with no administration of any drug sample, a group with administration of a vehicle (chitosan) only, a group with administration of cryptotanshinone (400 mg/kg), and a group with administration of cryptotanshinone (400 mg/kg) plus chitosan. Each group of animals was given drug samples in admixture with the feed for 20 days. All animals were allowed ad libitum access to water and standard laboratory chow throughout the study period.

[2] = Body weight change in ob/ob mice, effect of calcium silicate on micronized cryptotanshinone (Example 9); conditions: ob/ob male mice; cryptotanshinone 400 mg/kg in admixture with the feed for 20 days
Procedure: In order to ascertain whether calcium silicate maintains a particle size of micronized particles of cryptotanshinone, prevents the particle agglomeration or aggregation, and enhances therapeutic efficacy of cryptotanshinone, an animal experiment was carried out as follows.
as §1, with “room” for “mom”, “(calcium silicate)” for “(chitosan)”, “calcium silicate.” for “chitosan.”, “All animals were allowed ad libitum access to water and standard laboratory chow throughout the study period.” left out

[3] = Body weight change in ob/ob mice, effect of sucrose palmitate on micronized cryptotanshinone (Example 11); conditions: cryptotanshinone 400 mg/kg in admixture with the feed for 20 days
Procedure: In order to ascertain whether sucrose palmitate which is an emulsifier maintains a particle size of micronized particles of cryptotanshinone, prevents the particle agglomeration or aggregation, and enhances therapeutic efficacy of cryptotanshinone, an animal experiment was carried out as follows.
as §1, with “room” for “mom”, “(sucrose palmitate)” for “(chitosan)”, “sucrose palmitate.” for “chitosan.”, “All animals were allowed ad libitum access to water and standard laboratory chow throughout the study period.” left out

[4] = Body weight change in DIO C57BL/6 mice, effect of phosphatidylcholine on micronized cryptotanshinone (Example 8); conditions: DIO C57BL/6 male mice; cryptotanshinone 150 mg/kg PO for 40 days
Procedure: In order to ascertain whether phosphatidylcholine (PC) which is a phospholipid maintains a particle size of micronized particles of cryptotanshinone, prevents the particle agglomeration or aggregation, and enhances therapeutic efficacy of cryptotanshinone, an animal experiment was carried out as follows.
For this purpose, 5-week-old C57BL/6 male mice were purchased from Orient Co., Ltd., Korea and were allowed to acclimate to a new environment of the breeding room for 10 days prior to experiments. A DIO (diet-induced obesity) mouse model was established by supplying to animals high-fat diet for 8 weeks. 13-week-old male mice weighing 40 g were used in experiments. Animals were fed a high-fat feed (45 kcal % fat) (D12451, Research Diets Inc., New Brunswick, N.J.) as a laboratory animal chow. The DIO mice were housed and allowed to acclimate to a new environment for 10 days, in a breeding room maintained at a temperature of 22±2° C., humidity of 55±5%, and a 12-h light/dark (L/D) cycle (light from 8:00 a.m. to 8:00 p.m.). […]

[5] = Body weight change in ob/ob mice, micronized particles of 15,16-dihydrotanshinone (Example 12); conditions: ob/ob male mice; 400 mg/kg plus sodium lauryl sulfate in admixture with the feed for 20 days
Procedure: In order to confirm therapeutic efficacy of micronized particles of 15,16-dihydrotanshinone, an animal experiment was carried out as follows.
For this purpose, 10-week-old ob/ob male mice (Jackson Lab) as an obese mouse model of type 2 diabetes were purchased from Orient Co., Ltd., Korea and were allowed to acclimate to a new environment of the breeding room for 10 days prior to experiments. Animals were fed a solid feed (P5053, Labdiet) as a laboratory animal chow. The ob/ob male mice were housed and allowed to acclimate to a new environment for 10 days, in a breeding room maintained at a temperature of 22±2° C., humidity of 55±5%, and a 12-h light/dark (L/D) cycle (light from 8:00 am. to 8:00 p.m.). According to a randomized blocks design, the thus-acclimated animals were randomly divided into four groups, each consisting of 7 animals: a control group with no administration of any drug sample, a group with administration of a vehicle (sodium lauryl sulfate) only, a group with administration of 15,16-dihydrotanshinone (before microparticulation, 400 mg/kg) plus sodium lauryl sulfate, and a group with administration of micronized particles of 15,16-dihydrotanshinone (400 mg/kg) plus sodium lauryl sulfate. Each group of animals was given drug samples in admixture with the feed for 20 days. […]

[6] = Body weight change in ob/ob mice, intestine-targeted formulation of micronized β-lapachone (Example 14); conditions: ob/ob male mice; 200 mg/kg in terms of β-lapachone content PO once a day
Procedure: In order to confirm therapeutic efficacy of β-lapachone {7,8-dihydro-2,2-dimethyl-2H-naphtho(2,3-b)dihydropyran-7,8-dione} when micronized particles of β-lapachone was prepared into a formulation of an intestine-targeted drug delivery system, an animal experiment was carried out as follows.
0.2 g of sodium lauryl sulfate (SLS) and 10 g of β-lapachone were mixed and ground. To the resulting mixture were added approximately an equal amount of a water-soluble polymer (hydroxypropyl methylcellulose) relative to β-lapachone, and vehicles such as Croscarmellose sodium and light anhydrous silicic acid, followed by spray drying. Then, the spray-dried product was added to an ethanol solution containing about 20% by weight of Eudragit S-100 as a pH-sensitive polymer and about 2% by weight of PEG #6,000 as a plasticizer, and the mixture was then spray-dried to prepare intestine-targeted formulations.
In order to confirm the efficacy of each formulation, 200 mg/kg of the formulation in terms of β-lapachone content was administered to ob/ob mice once a day and changes in the body weight (BW) of animals were examined.
For this purpose, 10-week-old ob/ob male mice (Jackson Lab) as an obese mouse model of type 2 diabetes were purchased from Orient Co., Ltd., Korea and were allowed to acclimate to a new environment of the breeding room for 10 days prior to experiments. […]

[7] = Body weight change in ob/ob mice, micronized particles of tanshinone IIA (Example 13); conditions: ob/ob male mice; 400 mg/kg plus sodium lauryl sulfate in admixture with the feed for 20 days
Procedure: In order to confirm therapeutic efficacy of micronized particles of tanshinone IIA, an animal experiment was carried out as follows.
For this purpose, 10-week-old ob/ob male mice (Jackson Lab) as an obese mouse model of type 2 diabetes were purchased from Orient Co., Ltd., Korea and were allowed to acclimate to a new environment of the breeding room for 10 days prior to experiments. Animals were fed a solid feed (P5053, Labdiet) as a laboratory animal chow. The ob/ob male mice were housed and allowed to acclimate to a new environment for 10 days, in a breeding room maintained at a temperature of 22±2° C., humidity of 55±5%, and a 12-h light/dark (L/D) cycle (light from 8:00 am. to 8:00 p.m.). According to a randomized blocks design, the thus-acclimated animals were randomly divided into four groups, each consisting of 7 animals: a control group with no administration of any drug sample, a group with administration of a vehicle (sodium lauryl sulfate) only, a group with administration of tanshinone IIA (before microparticulation, 400 mg/kg) plus sodium lauryl sulfate, and a group with administration of micronized particles of tanshinone IIA (400 mg/kg) plus sodium lauryl sulfate. Each group of animals was given drug samples in admixture with the feed for 20 days. All animals were allowed ad libitum access to water and standard laboratory chow throughout the study period.

## C[C@H]1COC2=C1C(=O)C(=O)c1c2ccc2c1CCCC2(C)C [Cryptotanshinone alone, cryptotanshinone]
[1]
  Final BW: 53.2 ± 1.3 g
[2]
  Final BW: 53.2 ± 1.3 g
[3]
  Final BW: 53.2 ± 1.3 g
[4]
  Final BW: 40.2 ± 1.3 g

## Cc1cccc2c3c(ccc12)C1=C(C(=O)C3=O)C(C)CO1 (stereo not shown) [15,16-dihydrotanshinone]
[5]
  Final BW: 55.4 ± 3.1 g

## CC1(C)CCC2=C(O1)c1ccccc1C(=O)C2=O [Simply finely-divided powder, β-lapachone]
[6]
  Final BW: 57.5 ± 1.3 g

## Cc1coc2c1C(=O)C(=O)c1c-2ccc2c1CCCC2(C)C [Tanshinone IIA before microparticulation, tanshinone IIA]
[7]
  Final BW: 58.4 ± 3.3 g
